Reference: ChEMBL document CHEMBL1201862, “PubChem BioAssay data set” (2004)
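Cells were grown in 96-well plates and exposed to each compound for 48 hours at five concentrations; endpoints were interpolated linearly between bracketing concentrations, or set to the highest concentration if not reached. GI50: concentration for 50% inhibition of growth.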 Activity calls are given as the source filed them. No stated cut-off is given here; in the data, active = GI50 up to about 1.1 µM and inactive = higher.

How the values were obtained:
Assay in all cases: NCI-60 cell line screen, 48 h
SNB-19 = tested on: SNB-19
U-251 = tested on: U-251
786-0 = tested on: 786-0
UACC-257 = tested on: UACC-257
SW-620 = tested on: SW-620
COLO 205 = tested on: COLO 205
SNB-78 = tested on: SNB-78
SK-MEL-2 = tested on: SK-MEL-2
HOP-62 = tested on: HOP-62
LOX IMVI = tested on: LOX IMVI
CAKI-1 = tested on: CAKI-1
SK-MEL-28 = tested on: SK-MEL-28
OVCAR-3 = tested on: OVCAR-3
NCI-H522 = tested on: NCI-H522
SF-295 = tested on: SF-295
HT-29 = tested on: HT-29
NCI-H23 = tested on: NCI-H23
M14 = tested on: M14
A549 = tested on: A549
SR = tested on: SR
CCRF-CEM = tested on: CCRF-CEM
UACC-62 = tested on: UACC-62
OVCAR-4 = tested on: OVCAR-4
SF-539 = tested on: SF-539
HCC 2998 = tested on: HCC 2998
EKVX = tested on: EKVX
SF-268 = tested on: SF-268
UO-31 = tested on: UO-31
KM12 = tested on: KM12
TK-10 = tested on: TK-10
NCI-H226 = tested on: NCI-H226
OVCAR-5 = tested on: OVCAR-5
HL-60 = tested on: HL-60
KM-20L2 = tested on: KM-20L2
IGROV-1 = tested on: IGROV-1
RXF 393 = tested on: RXF 393
SN12C = tested on: SN12C
ACHN = tested on: ACHN
DMS-273 = tested on: DMS-273
OVCAR-8 = tested on: OVCAR-8
HCT-15 = tested on: HCT-15
RPMI-8226 = tested on: RPMI-8226
NCI-H460 = tested on: NCI-H460
MOLT-4 = tested on: MOLT-4
LXFL 529 = tested on: LXFL 529
K562 = tested on: K562
A498 = tested on: A498
SK-OV-3 = tested on: SK-OV-3
DLD-1 = tested on: DLD-1
HCT-116 = tested on: HCT-116
DMS-114 = tested on: DMS-114
Malme-3M = tested on: Malme-3M
M19-MEL = tested on: M19-MEL
SK-MEL-5 = tested on: SK-MEL-5

`COc1ccc2c3c([nH]c2c1[N+](=O)[O-])C(C)N(Cc1ccc([N+](=O)[O-])cc1)CC3` (stereo unspecified) was tested, and the GI50 (SNB-19) was 19.3 µM (inactive), the GI50 (U-251) was 15.7 µM (inactive) and the GI50 (786-0) was > 100 µM (inactive). For the same compound, the GI50 (UACC-257) was 12.9 µM (inactive), the GI50 (SW-620) was 15.1 µM (inactive) and the GI50 (COLO 205) was 14 µM (inactive). The GI50 (SNB-78) was 26.2 µM (inactive), the GI50 (SK-MEL-2) was 14.5 µM (inactive) and the GI50 (HOP-62) was > 10 µM (inactive). The GI50 (LOX IMVI) was 4.74 µM (inactive), the GI50 (CAKI-1) was 3.89 µM (inactive) and the GI50 (SK-MEL-28) was 11.9 µM (inactive). The GI50 (OVCAR-3) was 14 µM (inactive), the GI50 (NCI-H522) was 3.96 µM (inactive) and the GI50 (SF-295) was 16.3 µM (inactive). For the same compound, the GI50 (HT-29) was 8.75 µM (inactive), the GI50 (NCI-H23) was 6.7 µM (inactive) and the GI50 (M14) was 8.43 µM (inactive). The GI50 (A549) was > 100 µM (inactive), the GI50 (SR) was 5.5 µM (inactive) and the GI50 (CCRF-CEM) was 6.76 µM (inactive). For the same compound, the GI50 (UACC-62) was 15.8 µM (inactive), the GI50 (OVCAR-4) was 2.16 µM (inactive) and the GI50 (SF-539) was > 100 µM (inactive). The GI50 (HCC 2998) was 17.2 µM (inactive), the GI50 (EKVX) was 37.6 µM (inactive) and the GI50 (SF-268) was 2.48 µM (inactive). For the same compound, the GI50 (UO-31) was 13.2 µM (inactive), the GI50 (KM12) was 14.2 µM (inactive) and the GI50 (TK-10) was 29.6 µM (inactive). For the same compound, the GI50 (NCI-H226) was 18.1 µM (inactive), the GI50 (OVCAR-5) was 31.6 µM (inactive) and the GI50 (HL-60) was 3.22 µM (inactive). For the same compound, the GI50 (KM-20L2) was 10.8 µM (inactive), the GI50 (IGROV-1) was 39.8 µM (inactive) and the GI50 (RXF 393) was 10.9 µM (inactive). The GI50 (SN12C) was 18.5 µM (inactive), the GI50 (ACHN) was 18.1 µM (inactive) and the GI50 (DMS-273) was 6.24 µM (inactive). The GI50 (OVCAR-8) was 16.2 µM (inactive), the GI50 (HCT-15) was 15.6 µM and the GI50 (RPMI-8226) was 4.12 µM (inactive). For the same compound, the GI50 (NCI-H460) was 11.8 µM (inactive), the GI50 (MOLT-4) was 2.99 µM (inactive) and the GI50 (LXFL 529) was 5.7 µM (inactive). For the same compound, the GI50 (K562) was 3.22 µM (inactive) and the GI50 (A498) was 14.8 µM (inactive).
With `CC(=O)CC(=O)/C=C/c1cccs1` the GI50 (SNB-19) was > 100 µM (inactive), the GI50 (U-251) was > 100 µM (inactive) and the GI50 (786-0) was 99.5 µM (inactive). For the same compound, the GI50 (UACC-257) was > 100 µM (inactive), the GI50 (SW-620) was 70.1 µM (inactive) and the GI50 (COLO 205) was > 100 µM (inactive). The GI50 (SK-MEL-2) was > 100 µM (inactive), the GI50 (HOP-62) was > 100 µM (inactive) and the GI50 (LOX IMVI) was 55.2 µM (inactive). For the same compound, the GI50 (SK-OV-3) was > 100 µM (inactive), the GI50 (CAKI-1) was > 100 µM (inactive) and the GI50 (DLD-1) was 44 µM (inactive). The GI50 (HCT-116) was 40.7 µM (inactive), the GI50 (OVCAR-3) was > 100 µM (inactive) and the GI50 (DMS-114) was 59.4 µM (inactive). For the same compound, the GI50 (NCI-H522) was 42.3 µM (inactive), the GI50 (SF-295) was > 100 µM (inactive) and the GI50 (HT-29) was 58.9 µM (inactive). The GI50 (NCI-H23) was > 100 µM (inactive), the GI50 (Malme-3M) was 58.2 µM (inactive) and the GI50 (M14) was 54.2 µM (inactive). The GI50 (A549) was > 100 µM (inactive), the GI50 (SR) was 48.1 µM (inactive) and the GI50 (CCRF-CEM) was 38.5 µM (inactive). The GI50 (UACC-62) was 44.6 µM (inactive), the GI50 (OVCAR-4) was 87.5 µM (inactive) and the GI50 (SF-539) was 31.6 µM (inactive). The GI50 (EKVX) was > 100 µM (inactive), the GI50 (SF-268) was 45 µM (inactive) and the GI50 (UO-31) was 93.3 µM (inactive). The GI50 (KM12) was 55.2 µM (inactive), the GI50 (M19-MEL) was 83.9 µM (inactive) and the GI50 (TK-10) was > 100 µM (inactive). The GI50 (NCI-H226) was > 100 µM (inactive), the GI50 (OVCAR-5) was > 100 µM (inactive) and the GI50 (HL-60) was 27.9 µM (inactive). For the same compound, the GI50 (KM-20L2) was 98.6 µM (inactive), the GI50 (IGROV-1) was > 100 µM (inactive) and the GI50 (SN12C) was 63 µM (inactive). The GI50 (ACHN) was 97.3 µM (inactive), the GI50 (SK-MEL-5) was 37.1 µM (inactive) and the GI50 (OVCAR-8) was > 100 µM (inactive). For the same compound, the GI50 (HCT-15) was 47.8 µM, the GI50 (RPMI-8226) was 34.6 µM (inactive) and the GI50 (NCI-H460) was 64.1 µM (inactive). For the same compound, the GI50 (MOLT-4) was > 100 µM (inactive), the GI50 (LXFL 529) was 85.3 µM (inactive) and the GI50 (K562) was 47.1 µM (inactive). For the same compound, the GI50 (A498) was 64.9 µM (inactive).
